In patent US6632807B1, “(2R,4S)-(−)-[N-(4-diethoxyphosphorylmethyl)phenyl]-1,2,4,5- tetrahydro-4-methyl-7,8-methylenedioxy-5-oxo-3-benzothiepin-2-carboxamide” (Takeda Chemical Industries, Ltd., priority 1994, dated 2003):

Assays:
[1] = system: stromal cells prepared from the femoral bone marrow of a normal rat; assay: Osteogenesis-promoting action: alkaline phosphatase activity in rat bone marrow stromal cells; assay type: cell-based; conditions: 10 to 14 days cultivation, mean ±SE, control 113.7 ± 8.1
Method: Using stromal cells prepared from the femoral bone marrow of a normal rat, alkaline phosphatase activity was determined as an index of osteogenesis. Specifically, stromal cells, prepared from the femoral bone marrow of a 7-week-old male Sprague-Dawley rat by the method of Maniatopoulos et al. [Cell Tissue Research, Vol. 254, p. 317 (1988)], were cultured in an α-MEM (minimum essential medium) solution containing both dexamethasone (10^−7 M) and β-glycerophosphoric acid (10^−2 M) to obtain mineralized bone-like tissue. One week later, the test compound (10^−6 M or 10^−5 M) was added to the confluent cells, followed by 10 to 14 more days of cultivation in the above culture broth. After washing with phosphate buffer, the cells were homogenized with 0.2% Nonidet P-40 and centrifuged at 3,000 rpm for 10 minutes. The resulting supernatant was assayed for alkaline phosphatase activity by the method of Lowry et al. [Journal of Biological Chemistry, Vol. 207, p. 19 (1954)]. The values obtained are given in mean ±SE in Table 1. The data were statistically analyzed by Student's t-test.

Row | melting point | SMILES | Alkaline Phosphatase Activity ([1]; test compound 10^−5 M) | Alkaline Phosphatase Activity ([1]; test compound 10^−6 M)
1 | 198 to 199 °C | COP(=O)(Cc1ccc(NC(=O)[C@H]2Cc3cc4c(cc3C(=O)[C@H](C)S2)OCO4)cc1)OC |  | 
2 | 183 to 184 °C | CCOP(=O)(Cc1ccc(NC(=O)[C@@H]2Cc3cc4c(cc3C(=O)[C@@H](C)S2)OCO4)cc1)OCC |  | 
3 |  | CCOP(=O)(Cc1ccc(NC(=O)[C@H]2Cc3cc4c(cc3C(=O)[C@H](C)S2)OCO4)cc1)OCC [Example 1, (2R,4S)-(−)-N-[4-(Diethoxyphosphorylmethyl)phenyl]-1,2,4,5-tetrahydro-4-methyl-7,8-methylenedioxy-5-oxo-3-benzothiepin-2-carboxamide] | 1635.5 ± 169.7 nmol p-nitrophenol/min/well | 682.5 ± 123.2 nmol p-nitrophenol/min/well
